Test results reported in patent US20100279976A1, “USE OF ARTEMISININ AND ITS DERIVATIVES IN CANCER THERAPY” (SHANGHAI INSTITUTES FOR BIOLOGICAL SCIENCES, CAS, priority 2009, published 2010).

Experiments:
Hep3B cells = experiment: Annexin V-FITC apoptosis assay, Hep3B; type: cell-based, human
Procedure: (§1) ART- and DHA-induced apoptosis alone or in combination with gemcitabine in HepG2 and Hep3B cells or in combination with carboplatin in ovarian cancer cells may be determined by flow cytometry using the Annexin V-FITC Apoptosis Detection kit following the manufacturer's instructions. Briefly, 2×10^5 cells may be treated with ART and DHA (0, 1, 10, 25, and 50 mol/L) or 10 μg/L gemcitabine for 48 h. The cells may then be harvested, washed in PBS, and incubated with Annexin V and propidium iodide for staining in binding buffer at room temperature for 10 min in the dark. The stained cells may be analyzed using the FACSAria instrument.

[1] = tested on: IOSE144 immortalized non-tumorigenic ovarian surface epithelial cells; experiment: MTT cell viability assay, IOSE144; type: cell-based; conditions: Homo sapiens, IOSE-144, IOSE144, 48 hrs
Excerpt: Human ovarian IOSE144 (immortalized non-tumorigenic human ovarian surface epithelial cells) and ovarian carcinoma (A2780 and OVCAR-3) cells that may be obtained from the American Type Culture Collection (ATCC, Manassas, Va.) are gifts from Dr. Jing Fang (Institute for Nutritional Sciences, Shanghai, China). All cells may be cultured according to the ATCC instructions. The compounds (ARS, ART, ARM and DHA) may be dissolved in DMSO (<0.1%, final concentration).
(§2) The effects of ART derivatives on the viability of the aforementioned cells may be determined using the MTT assay. Briefly, 2,000 cells per well were plated in triplicate in 96-well plates. After a 24-h incubation, the cells may be treated with varying concentrations of ART derivatives (0, 1, 5, 10, 25, 50, and 100 μmol/L) for 48 h. The MTT assay may be performed according to the manufacture's instruction and the resultant formazan crystals may be dissolved in DMSO (100 μL). The absorbance may be then recorded at 540 nm. The effects of ART derivatives on cell viability may be assessed by comparing the percent cell viability of the treated cells with the vehicle (DMSO)-treated control cells, which may be arbitrarily assigned at 100% viability. The experiment may be repeated thrice under the same conditions.

[2] = tested on: BEL-7404 hepatoma cells (p53 mutant); experiment: MTT cell viability assay, BEL-7404; type: cell-based; conditions: Homo sapiens, BEL-7404 (p53 mutant), 48 h
Procedure: as §2

HepG2 cells = experiment: Western blot of apoptosis-related proteins; type: cell-based, human; conditions: HepG2, 48 h
Procedure: Whole-cell lysates may be generated with radioimmunoprecipitation assay lysis buffer, and after centrifugation, the supernatant fraction may be collected for immunoblotting. Proteins may be resolved by SDS-PAGE and transferred onto a nitrocellulose membrane. After blocking with 5% nonfat milk in blocking buffer [20 mmol/L TBS (pH 7.5) containing 0.1% Tween 20], the membrane may be incubated with the desired primary antibody for 2 h at room temperature and then incubated with appropriate peroxidase conjugated secondary antibody. The immunoreactive bands may be visualized using the ECL Plus Western Blotting Detection System. The level of ([…] for each sample may be used as loading control. Tumor tissues may be collected at the termination of the experiment and homogenized using a homogenizer in ice-cold lysis buffer. Supernatants may be collected and used to examine the expression of different proteins by Western blot analysis.

A2780 cells = experiment: Annexin V-FITC apoptosis assay, A2780; type: cell-based, human; conditions: A2780, 50 μM, 24 hrs
Procedure: as §1, with “Briefly, 2×10^5 cells may be treated with ART and DHA (0, 1, 10, 25, and 50 mol/L) or 10 μg/L gemcitabine for 48 h.” left out

ovarian cancer cells = experiment: MTT cell viability assay, ovarian cancer cells (line not specified); type: cell-based; conditions: Homo sapiens, 48 hrs, read-out: inhibition of viability
Procedure: as §2

OVCAR-3 xenograft tumors = experiment: OVCAR-3 xenograft model in nude mice; type: in vivo; conditions: 5 days/week
Procedure: Four to six week old female athymic nude mice (BALB/c, nu/nu) may be purchased from Shanghai Experimental Animal Center (Shanghai, China). Animal studies are approved by the Institute for Nutritional Sciences. The tumor xenograft model may be established as follows. Briefly, A2780 and OVCAR-3 cells may be harvested and re-suspended in serum-free RPMI 1640 medium containing 20% (v/v) Matrigel (BD Biosciences, Bedford, Mass., USA). Aliquots of cells (˜5×10^6 cells/0.2 ml) may be injected subcutaneously into the left inguinal area of the mice. The tumor growth and body weight of the mice may be monitored every other day. Tumor mass may be determined. Mice bearing palpable tumors (˜70 mg) may be randomly divided into treatment and control groups n=5 mice/group). CBP may be dissolved in saline, and DHA may be dissolved in cremophor EL:ethanol:saline (5:5:90, v/v/v). DHA may be administered via i.p. injection at doses of 10 and 25 mg/kg/5 days/week for 3 weeks) alone or combined with CBP (at a single dose of 120 mg/kg, once on day 0). The control group receives saline only. Mice may be killed on day 18. Tumors may be carefully excised, trimmed of extraneous fat or connective tissue, and homogenized in RIPA buffer (100 mg tumor tissue/1 ml RIPA) and prepared for immunoblotting analysis as described above.

[3] = 1 μmol/L, 48 h (0 μmol/L: 0.8%)

Row | Compound | apoptotic cells (Hep3B cells; [3]) | apoptotic cells (Hep3B cells; 10 μmol/L, 48 h) | apoptotic cells (Hep3B cells; 25 μmol/L, 48 h) | apoptotic cells (Hep3B cells; 50 μmol/L, 48 h) | IC20 [1] | IC50 [1] | IC80 [1] | IC20 [2] | IC50 [2] | IC80 [2] | MDM2 level (HepG2 cells) | cleavage of caspase-3 and PARP (HepG2 cells) | level of Bax (HepG2 cells) | level of Bcl-2 protein (HepG2 cells) | p53 level (HepG2 cells) | increase in apoptosis versus control (A2780 cells) | cytotoxicity at 1 µM (ovarian cancer cells; 1 μM) | cytotoxicity at 500 µM (ovarian cancer cells; 500 μM) | tumor growth inhibition (OVCAR-3 xenograft tumors; DHA 10 mg/kg i.p.) | tumor growth inhibition (OVCAR-3 xenograft tumors; DHA 25 mg/kg i.p.)
1 | C[C@@H]1CC[C@H]2[C@@H](C)C(=O)O[C@@H]3O[C@@]4(C)CC[C@@H]1[C@]32OO4 [ART, artemisinin] | 2.25% | 2.65% | 4.8% | 25.3% | 5.6 µM | > 500 µM | > 500 µM | 0.9 µM | 9.9 µM | 107 µM | decrease | dose-dependent increase | concomitant increase | dose-dependent reduction | dose-dependent increase |  |  |  |  | 
2 | C[C@H]1[C@@H](O)O[C@@H]2O[C@@]3(C)CC[C@H]4[C@H](C)CC[C@@H]1[C@@]24OO3 [DHA, dihydroartemisinin] | 2.15% | 12.9% | 28.75% | 31.05% | 1.84 µM | 106 µM | > 500 µM | 0.7 µM | 9.3 µM | 130 µM |  |  |  |  |  | 17 fold | 24% | 95% | 14% | 37%
